From patent US20150353495A1 (PORTOLA PHARMACEUTICALS, INC., priority 2010, published 2015)

Legend:
JAK1 = target: T1, JAK1 (Homo sapiens, UniProt P23458); test: Z'-LYTE kinase assay JAK1; type: biochemical
T1 construct: 5 μl of catalytic domain recombinant Kinase enzyme+Tyr peptide substrate (Invitrogen, CA); purchased Invitrogen
Procedure, shortened: (§1)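 In duplicate wells, each test molecule (1% final DMSO) is incubated with recombinant kinase catalytic domain, Tyr6 peptide substrate and ATP for one hour at room temperature; a site-specific protease is then added for another hour before fluorescence reading.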

JAK3 = target: T2, JAK3 (Homo sapiens, UniProt P52333); test: Z'-LYTE kinase assay JAK3; type: biochemical
T2 construct: 5 μl of catalytic domain recombinant Kinase enzyme+Tyr peptide substrate (Invitrogen, CA); purchased Invitrogen
T2 sequence (P52333 822-1111 limits assumed): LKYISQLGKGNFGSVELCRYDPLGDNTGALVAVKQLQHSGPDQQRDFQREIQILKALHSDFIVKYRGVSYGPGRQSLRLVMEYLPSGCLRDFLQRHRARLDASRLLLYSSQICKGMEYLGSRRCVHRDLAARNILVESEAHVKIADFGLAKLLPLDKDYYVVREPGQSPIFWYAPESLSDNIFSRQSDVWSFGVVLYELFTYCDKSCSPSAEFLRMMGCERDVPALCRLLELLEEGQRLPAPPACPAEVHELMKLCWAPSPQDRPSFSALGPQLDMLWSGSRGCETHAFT
Procedure, shortened: as §1

TYK2 = target: T3, TYK2 (Homo sapiens, UniProt P29597); test: Z'-LYTE kinase assay TYK2; type: biochemical
T3 construct: 5 μl of catalytic domain recombinant Kinase enzyme+Tyr peptide substrate (Invitrogen, CA); purchased Invitrogen
T3 sequence (P29597 897-1176 limits assumed): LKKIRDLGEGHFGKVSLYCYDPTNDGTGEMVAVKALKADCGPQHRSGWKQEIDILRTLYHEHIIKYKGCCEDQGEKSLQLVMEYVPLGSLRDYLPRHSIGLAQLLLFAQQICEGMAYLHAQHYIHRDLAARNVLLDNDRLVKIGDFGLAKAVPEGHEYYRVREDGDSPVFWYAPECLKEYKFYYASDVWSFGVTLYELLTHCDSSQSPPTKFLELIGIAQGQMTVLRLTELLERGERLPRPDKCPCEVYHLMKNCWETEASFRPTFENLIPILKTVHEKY
Procedure, shortened: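 IC50 derived by 4-parameter logistic fit of percent substrate phosphorylation relative to uninhibited wells. Tyr6 peptide phosphorylated by recombinant TYK2 catalytic domain for 1 h at room temperature (1% DMSO), cleaved by development protease 1 h, FRET emission ratio 445/520 nm.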

[1] = system: JAK1/3 signaling to STAT5 in primary T cells; test: IL2 stimulation of JAK1/3 signaling to STAT5 in primary T cells (pSTAT5 Y694, FACS); type: cell-based; conditions: T-cell; for inhibition at 0.2 µM: 0.2 uM compound, read-out: IL-2/STAT5 Percent Inhibition at 0.2 uM; for inhibition at 1 µM: 1.0 μM compound, read-out: IL-2/STAT5 Percent Inhibition at 1.0 μM
Method: IL2 Stimulation of JAK1/3 Signaling to STAT5 in Primary T Cells:
The effect of JAK inhibitors on cytokine signaling pathways utilizing JAK3 was determined using an IL2 stimulation assay. IL2 engages a receptor complex that contains the IL2 receptor alpha and beta subunits, and the common gamma chain, to initiate activation of JAK1 and JAK3 leading to phosphorylation of STAT5 at tyrosine position 694. Lymphocytes are isolated from heparinized whole blood over a ficoll gradient, then resuspended in tissue culture media containing 10% fetal calf serum at 10×10̂6 cells/ml. 100 μl aliquots are pre-treated for 1 hour with various concentrations of compound, and then stimulated for 12 minutes with 100 U/ml IL2. The signaling reaction is terminated by fixing in 2% paraformaldehyde for 10 minutes at room temperature. Fixed cells are then washed and permeablized by suspension in 50% methanol (in PBS) at −80° C. Following overnight incubation at 4° C., cells are washed and resuspended in PBS containing 0.5% bovine serum albumin containing CD3-APC and pSTAT5 Y694-PE conjugated antibodies. After 1 hour incubation, cells are washed and the extent of STAT5 phosphorlyation in T cells is measured by FACS analysis.

JAK2 = target: T4, JAK2 (Homo sapiens, UniProt O60674); test: Z'-LYTE kinase assay JAK2; type: biochemical
T4 construct: 5 μl of catalytic domain recombinant Kinase enzyme+Tyr peptide substrate (Invitrogen, CA); purchased Invitrogen
T4 sequence (O60674 849-1124 limits assumed): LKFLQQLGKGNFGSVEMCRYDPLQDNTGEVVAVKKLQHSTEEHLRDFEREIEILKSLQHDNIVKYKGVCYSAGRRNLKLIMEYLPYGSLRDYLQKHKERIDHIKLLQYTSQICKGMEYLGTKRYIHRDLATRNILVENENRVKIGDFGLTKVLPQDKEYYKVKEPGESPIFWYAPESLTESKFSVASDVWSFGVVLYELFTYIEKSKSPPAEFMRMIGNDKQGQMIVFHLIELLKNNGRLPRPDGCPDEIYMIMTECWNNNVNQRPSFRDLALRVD
Procedure, shortened: as §1

[2] = system: JAK1/3 signaling to STAT6 in Ramos B cells; test: IL4 stimulation of JAK1/3 signaling to STAT6 in Ramos B cells (pSTAT6 Y641, FACS); type: cell-based; conditions: Homo sapiens; for inhibition at 0.2 µM: 0.2 uM compound, read-out: IL-4/STAT6 in Ramos Percent Inhibition at 0.2 uM; for inhibition at 1 µM: 1.0 uM compound, read-out: IL-4/STAT6 in Ramos Percent Inhibition at 1.0 uM
Procedure, shortened: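 Phospho-STAT6 Y641 was measured by FACS using a PE-labelled antibody after fixation (2% paraformaldehyde) and methanol permeabilization. Before this, Ramos cells were exposed to compound for 1 h, then to 15 ng IL4 for 15 min.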

T1 sequence (P23458 875-1153 limits assumed): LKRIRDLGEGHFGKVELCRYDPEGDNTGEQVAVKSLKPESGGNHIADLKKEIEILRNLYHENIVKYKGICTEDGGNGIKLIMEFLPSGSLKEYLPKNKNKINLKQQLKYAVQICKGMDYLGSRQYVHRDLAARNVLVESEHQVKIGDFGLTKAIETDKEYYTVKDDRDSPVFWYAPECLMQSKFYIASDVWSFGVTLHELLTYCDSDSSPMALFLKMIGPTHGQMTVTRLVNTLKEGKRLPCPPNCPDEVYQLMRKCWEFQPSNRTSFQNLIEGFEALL

IC50 (JAK1) [nM]	IC50 (JAK3) [nM]	IC50 (TYK2) [nM]	IC50 (JAK2) [nM]	Compound	inhibition at 0.2 µM [1] [%]	inhibition at 1 µM [1] [%]	inhibition at 0.2 µM [2] [%]	inhibition at 1 µM [2] [%]
100 to 1000	10 to 100	> 1000	100 to 1000	NC(=O)c1cnc(Nc2cccc(C(=O)N3CCC3)c2)cc1NCc1ccccc1 [Example 45, 6-(3-(azetidine-1-carbonyl)phenylamino)-4-(benzylamino)nicotinamide]	22	25		
10 to 100	1 to 10	10 to 100	10 to 100	CCC(=O)N1CCC(c2ccc(Nc3cc(NCc4cccc5[nH]ccc45)c(C(N)=O)cn3)cc2)CC1 [Example 200, 4-((1H-indol-4-yl)methylamino)-6-(4-(1-propionylpiperidin-4-yl)phenylamino)nicotinamide]	77	103		
100 to 1000	1 to 10	100 to 1000	10 to 100	NC(=O)c1cnc(Nc2ccc(C3CCNCC3)cc2)cc1NCc1cccc(F)c1F [Example 209, 4-(2,3-difluorobenzylamino)-6-(4-(piperidin-4-yl)phenylamino)nicotinamide]	70	99		
> 1000	10 to 100	100 to 1000	100 to 1000	CC(=O)N1CCN(c2ccc(Nc3cc(N[C@H]4CCc5ccccc54)c(C(N)=O)cn3)cc2)CC1 [Example 255, (S)-6-(4-(4-acetylpiperazin-1-yl)phenylamino)-4-(2,3-dihydro-1H-inden-1-ylamino)nicotinamide]			11	18
100 to 1000	1 to 10	100 to 1000	10 to 100	CC(=O)N1CCN(c2ccc(Nc3cc(NCc4cccc(Cl)c4)c(C(N)=O)cn3)cc2)CC1 [Example 257, 6-(4-(4-acetylpiperazin-1-yl)phenylamino)-4-(3-chlorobenzylamino)nicotinamide]			34	65
100 to 1000	1 to 10	100 to 1000	10 to 100	CC(=O)N1CCN(c2ccc(Nc3cc(NCc4ccccc4F)c(C(N)=O)cn3)cc2)CC1 [Example 258, 6-(4-(4-acetylpiperazin-1-yl)phenylamino)-4-(2-fluorobenzylamino)nicotinamide]			39	63
> 1000	1 to 10	> 1000	10 to 100	Cc1cc(Nc2cc(NCc3cccc4cc[nH]c34)c(C(N)=O)cn2)ccc1C(=O)N(C)C [Example 283, 4-((1H-indol-7-yl)methylamino)-6-(4-(dimethylcarbamoyl)-3-methylphenylamino)nicotinamide]	42	65		
> 1000	10 to 100	> 1000	100 to 1000	COc1ccc(Nc2cc(NCc3cccc4ccsc34)c(C(N)=O)cn2)cc1 [Example 284, 4-(benzo[b]thiophen-7-ylmethylamino)-6-(4-methoxyphenylamino)nicotinamide]	39	75		
10 to 100	< 1	100 to 1000	10 to 100	Cc1cc(Nc2cc(NCc3cccc4ccsc34)c(C(N)=O)cn2)ccc1C(=O)N(C)C [Example 285, 4-(benzo[b]thiophen-7-ylmethylamino)-6-(4-(dimethylcarbamoyl)-3-methylphenylamino)nicotinamide]	58	96		
10 to 100	1 to 10	100 to 1000	10 to 100	COc1ccc(Nc2cc(NCc3cccc4[nH]ccc34)c(C(N)=O)cn2)cc1 [Example 294, 4-((1H-indol-4-yl)methylamino)-6-(4-methoxyphenylamino)nicotinamide]	75	102		
100 to 1000	1 to 10	100 to 1000	100 to 1000	NC(=O)c1cnc(Nc2ccc(F)cc2)cc1NCc1cccc2[nH]ccc12 [Example 319, 4-((1H-indol-4-yl)methylamino)-6-(4-fluorophenylamino)nicotinamide]	81	103		
10 to 100	1 to 10	10 to 100	10 to 100	CS(=O)(=O)c1ccc(Nc2cc(NCc3cccc4[nH]ccc34)c(C(N)=O)cn2)cc1 [Example 320, 4-((1H-indol-4-yl)methylamino)-6-(4-(methylsulfonyl)phenylamino)nicotinamide]	90	108		
100 to 1000	10 to 100	> 1000	100 to 1000	NC(=O)c1cnc(Nc2ccc(OC(F)F)cc2)cc1NCc1cccc2[nH]ccc12 [Example 321, 4-((1H-indol-4-yl)methylamino)-6-(4-(difluoromethoxy)phenylamino)nicotinamide]	42	94		
100 to 1000	1 to 10		10 to 100	CC(=O)N1CC(c2ccc(Nc3cc(NCc4cccc5ccsc45)c(C(N)=O)cn3)cc2)C1 [Example 333, 6-(4-(1-acetylazetidin-3-yl)phenylamino)-4-(benzo[b]thiophen-7-ylmethylamino)nicotinamide]	35	84		
> 1000	10 to 100		> 1000	NC(=O)c1cnc(Nc2ccc(N3CCN(c4ccccn4)CC3)cc2)cc1NCc1ccccc1 [Example 385]	37	62		
100 to 1000	1 to 10		100 to 1000	CN(C)C(=O)c1ccc(Nc2cc(NCc3cccc(-c4ccncc4)c3)c(C(N)=O)cn2)cc1 [Example 412, 6-(4-(dimethylcarbamoyl)phenylamino)-4-(3-(pyridine-4-yl)benzylamino)nicotinamide]	25	59		
100 to 1000	1 to 10	100 to 1000	100 to 1000	NC(=O)c1cnc(Nc2cccc(OCC(=O)N3CCOCC3)c2)cc1NCc1ccccc1 [Example 430, 4-(benzylamino)-6-(3-(2-morpholino-2-oxoethoxy)phenylamino)nicotinamide]			15	36
> 1000	1 to 10	> 1000	100 to 1000	NC(=O)c1cnc(Nc2ccc(CN3CCOCC3)cc2)cc1NCc1ccccc1 [Example 431, 4-(benzylamino)-6-(4-(morpholinomethyl)phenylamino)nicotinamide]			7	24
> 1000	10 to 100	> 1000	100 to 1000	COCCOc1ccc(Nc2cc(NCc3ccccc3)c(C(N)=O)cn2)cc1 [Example 432, 4-(benzylamino)-6-(4-(2-methoxyethoxyl)phenylamino)nicotinamide]			16	17
100 to 1000	10 to 100	> 1000	100 to 1000	COCCOc1cccc(Nc2cc(NCc3ccccc3)c(C(N)=O)cn2)c1 [Example 433, -(benzylamino)-6-(3-(2-methoxyethoxyl)phenylamino)nicotinamide]			18	27
